Reference: the NIST ThermoML archive (doi:10.1016/j.jct.2008.02.016)
Numbers after ± are expanded uncertainties.

Conditions: Liquid

vapor or sublimation pressure (303.15 K) [kPa]	vapor or sublimation pressure (313.15 K) [kPa]	vapor or sublimation pressure (323.15 K) [kPa]	Structure (SMILES)
7.87 ± 0.16	12.33 ± 0.22	18.95 ± 0.3	CCCCCCC [heptane]
25.01 ± 0.37	37.54 ± 0.53	54.39 ± 0.74	CCCCCC [hexane]
